Source: patent US20250162989A1, “USP30 INHIBITORS AND USES THEREOF” (Vincere Biosciences, Inc., priority 2021, published 2025)

What was measured:
[1] = molecular target: recombinant USP30 (amino acids 57-517 of the human sequence) (Homo sapiens (Human), UniProt Q70CQ3); assay: In vitro USP30 biochemical assay (Ubiquitin-Rhodamine substrate); details: fluorescence
Protocol: In vitro biochemical assay to establish the potency of compounds for USP30 inhibition: a 384-well plate assay using a fluorophore tagged substrate of USP30 was used for in vitro screening of compounds. Each compound was tested at
10 different concentrations (0.5 to 10,000 nM) in duplicate wells. […] Data were analyzed using Graph Pad Prism software with a four-parameter (floating slope) fit to log concentration data to determine IC50s.

Kinetic solubility = format: physicochemical; details: 100 mM PBS, 1 hour at room temperature
Protocol: To 396 μL of a 100 mM phosphate buffered saline (PBS) was added 4 μL of a 10 mM stock solution of the compound. The mixture was shaken at 1000 rpm for 1 hour at room temperature. […] Compound concentration was calculated by comparison to a standard calibration curve. The assay was done in duplicate. The results are reported in μMol.

[2] = Metabolic stability and intrinsic clearance in liver microsomes (human); format: in vitro ADME; details: 37° C.
Protocol: (§1) Test compounds were incubated with microsomes supplemented with co-factors at 37° C. Typical conditions were: compound concentration of 1 μM and 5 sampling time-points (0, 15, 30, 45 and 60 minutes), in duplicates. At each time-point, the reactions were terminated by the addition of organic solvent. The samples were centrifuged and the parent compound concentration was evaluated by LC-MS/MS measurements.

[3] = Metabolic stability and intrinsic clearance in liver microsomes (rat); format: in vitro ADME; details: 37° C.
Protocol: as §1

[4] = Metabolic stability and intrinsic clearance in liver microsomes (mouse); format: in vitro ADME; details: 37° C.
Protocol: as §1

USP30 = USP30 (Homo sapiens (Human), UniProt Q70CQ3); assay: Dundee MALDI-TOF mass spectrometry assay (K48-linked diubiquitin cleavage); format: biochemical; details: USP30 25 ng/μl, K48-linked diubiquitin 5.6 μM, read-out: IC50
[5] = tested on: Tom20 loss in differentiated RenCell VM; assay: In-cell Tom20 loss assay; format: cell-based; details: 20 h after compound addition
Protocol: To evaluate Tom20 loss following treatment with compounds and/or antimycin/oligomycin, a 96-well plate assay was performed on differentiated RenCell VM. These were seeded into laminin-coated 96-well plates at 5000 cells/well in normal growth medium (ReNcell NSC maintenance medium+20 ng/ml FDF-2 and 20 ng/ml EGF). After 3 days, growth medium was replaced with differentiation medium (ReNCell NSC medium+0.1 mM dibutyryl cAMP and 2 ng/ml GDNF). On days 1 and 4 following addition of differentiation medium, the media was removed and replaced with fresh differentiation medium. […] After again washing with PBS, cells were imaged using GE INCell 6000 at 40× and quantified using HCA-based quantification algorithm of fluorescence density×area normalized to the number of nuclei.

Caco-2 cells = assay: Caco-2 permeability screening assay; format: in vitro ADME; details: Caco-2, 10 μM, […] at 37° C.
Protocol: Caco-2 cells were used after a 21-day cell culture in 24-well Transwell plates. Test and reference compounds (Metoprolol, Enalapril and Erythromycin) were prepared in DMSO and added to either the apical or basolateral chambers of the transwell plate assembly at a concentration of 10 μM. Lucifer Yellow was added to the donor buffer in all wells to assess integrity of the cell layers by monitoring Lucifer Yellow permeation. As Lucifer Yellow (LY) cannot freely permeate lipophilic barriers, a high degree of LY transport indicates poor integrity of the cell layer. After 1.5 hrs incubation at 37° C., aliquots were taken from both apical (A) and basal (B) chambers and added to stop solution in a 96 well plate. Concentrations of compound in the samples were measured by LC-MS/MS. The Efflux ratios, as an indication of active efflux from the apical cell surface, were calculated using the ratio of Papp B>A/Papp A>B.

[6] = […] recombinant USP30, 25 nM Ubiquitin-Rhodamine

recombinant USP30 (amino acids 57-517 of the human sequence), sequence (Q70CQ3 57-517): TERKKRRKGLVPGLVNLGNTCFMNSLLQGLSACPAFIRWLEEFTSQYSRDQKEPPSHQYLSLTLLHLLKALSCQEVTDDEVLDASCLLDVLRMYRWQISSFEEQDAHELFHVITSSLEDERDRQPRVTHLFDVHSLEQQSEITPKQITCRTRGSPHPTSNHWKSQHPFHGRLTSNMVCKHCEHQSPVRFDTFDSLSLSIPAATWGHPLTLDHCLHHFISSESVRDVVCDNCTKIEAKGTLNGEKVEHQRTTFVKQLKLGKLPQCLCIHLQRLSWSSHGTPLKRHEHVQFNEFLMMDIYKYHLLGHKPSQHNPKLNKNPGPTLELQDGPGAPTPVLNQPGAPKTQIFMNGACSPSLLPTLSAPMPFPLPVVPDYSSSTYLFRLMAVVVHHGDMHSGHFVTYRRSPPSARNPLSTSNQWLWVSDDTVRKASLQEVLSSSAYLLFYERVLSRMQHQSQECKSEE
USP30, sequence (Q70CQ3 whole entry): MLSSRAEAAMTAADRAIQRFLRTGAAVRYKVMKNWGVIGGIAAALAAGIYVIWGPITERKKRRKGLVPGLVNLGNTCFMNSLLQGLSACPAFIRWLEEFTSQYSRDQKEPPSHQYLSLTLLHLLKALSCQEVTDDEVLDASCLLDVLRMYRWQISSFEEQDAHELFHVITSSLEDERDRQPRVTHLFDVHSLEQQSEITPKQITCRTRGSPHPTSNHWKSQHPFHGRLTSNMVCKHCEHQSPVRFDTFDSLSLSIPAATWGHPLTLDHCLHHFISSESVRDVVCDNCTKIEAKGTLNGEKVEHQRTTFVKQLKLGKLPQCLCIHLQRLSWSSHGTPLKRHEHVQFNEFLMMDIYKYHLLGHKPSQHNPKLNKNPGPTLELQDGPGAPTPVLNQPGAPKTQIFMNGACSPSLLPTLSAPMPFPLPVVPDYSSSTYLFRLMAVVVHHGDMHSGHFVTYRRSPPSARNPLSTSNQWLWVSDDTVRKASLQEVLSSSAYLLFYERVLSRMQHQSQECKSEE

Compound | IC50 ([1]; 1.5 nM recombinant USP30, 25 nM Ubiquitin-Rhodamine) | Kinetic Solubility (μMol) (Kinetic solubility) | half-life at 1 μM [2] | half-life at 1 μM [3] | half-life at 1 μM [4] | IC50 (USP30) | IC50 [1, 6] | IC50 [5] | Half-life in human microsomes ([2]; 1 μM) | Half-life in rat microsomes ([3]; 1 μM) | Half-life in mouse microsomes ([4]; 1 μM) | Efflux Ratio (Papp B>A/Papp A>B) (Caco-2 cells) | Papp(A-B) (10 − 6, cm/sec) (Caco-2 cells; apical to basolateral)
COc1cc(NC(=O)[C@H](CC2CCOCC2)NC(=O)c2ccc(F)cc2)ccc1S(=O)(=O)NC1COC1 [Compound I-3] | 0.05 to 1 µM | A (solubility of ≥75.0 μMol) | 2 to 6 h | ≥ 6 h | 0.25 to 2 h | – | – | – | – | – | – | – | –
CC(C)(C)NS(=O)(=O)c1ccc(NC(=O)[C@H](CC2CCOCC2)NC(=O)c2ccc(F)cc2)cc1 [Compound I-1] | – | – | – | – | – | < 50 nM | < 0.05 µM | < 500 nM | – | – | – | – | –
CC(C)(C)NS(=O)(=O)c1ccc(NC(=O)[C@H](CC2CCCCC2)NC(=O)c2ccc(F)cc2)cc1 [Compound I-294] | – | C (solubility ≥1.0 μMol and <50.0 μMol) | – | – | – | – | < 0.05 µM | – | D (half-life of <15 minutes) | D (half-life of <15 minutes) | D (half-life of <15 minutes) | B (efflux ratio >2 and ≤6) | 1.8 10 − 6, cm/sec
